# Measurements published in PubChem BioAssay AID2060611 (Molecular Pharmacology Branch, DTP, NCI, 2025).
# Test system: 628569-122-R-J1-PDC complex spheroid viability
# Assay: Anticancer human tumor 628569-122-R-J1-PDC patient-derived head and neck squamous carcinoma cell line growth inhibition [CLK]
# Conditions: for IC50: curve of first compound; for viability, T/C: stronger effect = lower value
# Text: A high-throughput screen of multi-cell type tumor spheroids was designed to identify active combinations of […] and targeted small molecules. Complex spheroids include a stromal component modeled by human endothelial cells (HUVEC) and fibroblasts modeled by human mesenchymal stem cells (MSCs). The concentration ranges selected for each drug and investigational agent were based upon clinically achievable concentrations if the clinical Cmax of the agent was known.
# Compounds. The drugs and investigational agents: cirtuvivint (SM08502; NSC835563), CC-671 (NSC850746), vemurafenib (NSC761431), tapotoclax (NSC804041), sotorasib (NSC818433), adagrasib (NSC831453), MRTX-1133 (NSC836407), BAY2416964 (NSC825713), copanlisib (NSC816437), inavolisib (NSC800729), abemaciclib (NSC768073), osimertinib (NSC779217), entinostat (NSC756642), eltanexor (KPT-8602, NSC794443), venetoclax (NSC766270), ceralasertib (NSC777638), bortezomib (NSC756655), olaparib (NSC753686), talazoparib (NSC767125), alisertib (NSC759677), peposertib (NSC802822), gemcitabine (NSC613327), 5-fluorouracil (NSC19893), SN-38 (NSC673596), oxaliplatin (NSC266046), paclitaxel (NSC125973), and doxorubicin (NSC123127), were obtained from the National Cancer Institute (NCI) Developmental Therapeutics Program Chemical Repository. The FDA-approved anticancer drug set is available from the Developmental Therapeutics Program at https://dtp.cancer.gov/organization/dscb/obtaining/available plates.htm. […] The stock solutions were prepared in dimethyl sulfoxide (DMSO, Sigma-Aldrich, St. Louis, MO, cat. D2650), except for the platinum complexes which were prepared in saline (Quality Biological, Gaithersburg, MD, cat. 114-055-101), at 800-fold the tested concentration and stored at -70 degrees C prior to their use. All drugs and investigational agents were tested over a range starting from a high concentration at or near the clinical Cmax and decreasing in half-log increments. If the clinical Cmax for an agent had not been determined, the highest concentration tested was 10 microM.
# Cell Culture. All cells were maintained in an incubator at 37 degrees C and 5% CO2 with 95% humidity. The PDC lines were cultured according to standard operating procedures established by the NCI PDMR. Briefly, all PDCs were thawed and cultured in Matrigel-coated flasks prepared with a working solution of 1X Ham's F-12 nutrient mix, without supplementation (Invitrogen, Waltham, MA, cat. 11765054), 100 U/mL penicillin-streptomycin (Invitrogen, cat. 15140122), and 2.5% Matrigel (Corning Inc., Corning, NY, cat. 354248) for the first three passages. The 947758-054-R-J2-PDC line was cultured in 6B/Colon 1A media, which includes advanced DMEM/F-12 (Thermo Fisher Scientific, cat. 12634028), 10 mM HEPES (Thermo Fisher Scientific, cat. 15630080), 1X GlutaMAX supplement (Thermo Fisher Scientific, cat. 35050061), 0.1 mg/mL primocin (InvivoGen, cat. ant-pm-2), 10% defined fetal bovine serum, heat inactivated (HyClone Laboratories Inc., cat. SH30070.03HI), 1.25 mM N-Acetyl-L-cysteine (Sigma-Aldrich, cat. A9165), 10 mM nicotinamide (Sigma-Aldrich, cat. N0636), 1X B-27 supplement (Thermo Fisher Scientific, cat. 17504044), 1X N-2 supplement (Thermo Fisher Scientific, cat. 17502048), and 10 microM Y-27632 dihydrochloride (Tocris Bioscience, cat. 1254). The 876862-298-R-J1-PDC was cultured in 6E media, which includes all 6B/Colon 1A media components plus 50% L-WRN conditioned media (ATCC, cat. CRL-3276), 50 ng/mL recombinant human EGF recombinant protein (hEGF; Thermo Fisher Scientific, cat. PHG0311), 10 ng/mL recombinant human fibroblast growth factor 10 (hGFG-10; PeproTech, cat. 100-26), 1 ng/mL recombinant human fibroblast growth factor 2 (hFGF-2; PeproTech, cat. 100-18B), and 1 µM prostaglandin E2 (PGE2; Tocris, cat. 2296). The 227483-062-R1-J1-PDC line was cultured in Panc media, containing all 6E components except hFGF-2, with the addition of 500 nM SB-431542 (Selleckchem, cat. S1067) and 10 nM gastrin (Tocris, cat. 3006). […]
# 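Note: spheroids exposed to agents for seven days before readout.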
# 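Throughout, for viability, T/C: 100% = DMSO vehicle control viability.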
smiles,measurement,setting,value
C=CC(=O)Nc1cc(Nc2nccc(-c3cn(C)c4ccccc34)n2)c(OC)cc1N(C)CCN(C)C + CN1CCN(c2cc(C(=O)Nc3cc4cc(-c5cnn(C)c5)ccc4cn3)ccn2)CC1,IC50,second compound 0.0316 µM,> 300 nM
same,IC50,second compound 0.1 µM,102 nM
same,IC50,second compound 0.316 µM,< 0.949 nM
same,IC50,second compound 1 µM,< 0.949 nM
same,IC50,second compound 3.16 µM,< 0.949 nM
same,IC50,second compound 10 µM,< 0.949 nM
same,"viability, T/C","second compound 0.0316 µM, first compound 0.000949 µM",98.5%
same,"viability, T/C","second compound 0.0316 µM, first compound 0.003 µM",112%
same,"viability, T/C","second compound 0.0316 µM, first compound 0.00949 µM",94.6%
same,"viability, T/C","second compound 0.0316 µM, first compound 0.03 µM",89.1%
same,"viability, T/C","second compound 0.0316 µM, first compound 0.0949 µM",98.4%
same,"viability, T/C","second compound 0.0316 µM, first compound 0.3 µM",59.1%
same,"viability, T/C","second compound 0.1 µM, first compound 0.000949 µM",56.9%
same,"viability, T/C","second compound 0.1 µM, first compound 0.003 µM",68.1%
same,"viability, T/C","second compound 0.1 µM, first compound 0.00949 µM",70.1%
same,"viability, T/C","second compound 0.1 µM, first compound 0.03 µM",57%
same,"viability, T/C","second compound 0.1 µM, first compound 0.0949 µM",52.9%
same,"viability, T/C","second compound 0.1 µM, first compound 0.3 µM",19.4%
same,"viability, T/C","second compound 0.316 µM, first compound 0.000949 µM",35.5%
same,"viability, T/C","second compound 0.316 µM, first compound 0.003 µM",44.2%
same,"viability, T/C","second compound 0.316 µM, first compound 0.00949 µM",38.6%
same,"viability, T/C","second compound 0.316 µM, first compound 0.03 µM",39%
same,"viability, T/C","second compound 0.316 µM, first compound 0.0949 µM",32.9%
same,"viability, T/C","second compound 0.316 µM, first compound 0.3 µM",14.3%
same,"viability, T/C","second compound 1 µM, first compound 0.000949 µM",5.92%
same,"viability, T/C","second compound 1 µM, first compound 0.003 µM",6.94%
same,"viability, T/C","second compound 1 µM, first compound 0.00949 µM",10.9%
same,"viability, T/C","second compound 1 µM, first compound 0.03 µM",5.22%
same,"viability, T/C","second compound 1 µM, first compound 0.0949 µM",7.08%
same,"viability, T/C","second compound 1 µM, first compound 0.3 µM",5.76%
same,"viability, T/C","second compound 3.16 µM, first compound 0.000949 µM",5.99%
same,"viability, T/C","second compound 3.16 µM, first compound 0.003 µM",7.83%
same,"viability, T/C","second compound 3.16 µM, first compound 0.00949 µM",7.06%
same,"viability, T/C","second compound 3.16 µM, first compound 0.03 µM",9.16%
same,"viability, T/C","second compound 3.16 µM, first compound 0.0949 µM",6.05%
same,"viability, T/C","second compound 3.16 µM, first compound 0.3 µM",4.8%
same,"viability, T/C","second compound 10 µM, first compound 0.000949 µM",2.23%
same,"viability, T/C","second compound 10 µM, first compound 0.003 µM",2.23%
same,"viability, T/C","second compound 10 µM, first compound 0.00949 µM",4.31%
same,"viability, T/C","second compound 10 µM, first compound 0.03 µM",2.44%
same,"viability, T/C","second compound 10 µM, first compound 0.0949 µM",2.36%
same,"viability, T/C","second compound 10 µM, first compound 0.3 µM",4.04%
Nc1ccccc1NC(=O)c1ccc(CNC(=O)OCc2cccnc2)cc1 + CN1CCN(c2cc(C(=O)Nc3cc4cc(-c5cnn(C)c5)ccc4cn3)ccn2)CC1,IC50,second compound 0.0316 µM,7610 nM
same,IC50,second compound 0.1 µM,4780 nM
same,IC50,second compound 0.316 µM,< 31.6 nM
same,IC50,second compound 1 µM,< 31.6 nM
same,IC50,second compound 3.16 µM,< 31.6 nM
same,IC50,second compound 10 µM,< 31.6 nM
same,"viability, T/C","second compound 0.0316 µM, first compound 0.0316 µM",93.5%
same,"viability, T/C","second compound 0.0316 µM, first compound 0.1 µM",103%
same,"viability, T/C","second compound 0.0316 µM, first compound 0.316 µM",98.4%
same,"viability, T/C","second compound 0.0316 µM, first compound 1 µM",162%
same,"viability, T/C","second compound 0.0316 µM, first compound 3.16 µM",153%
same,"viability, T/C","second compound 0.0316 µM, first compound 10 µM",27.7%
same,"viability, T/C","second compound 0.1 µM, first compound 0.0316 µM",54.7%
same,"viability, T/C","second compound 0.1 µM, first compound 0.1 µM",63%
same,"viability, T/C","second compound 0.1 µM, first compound 0.316 µM",76.5%
same,"viability, T/C","second compound 0.1 µM, first compound 1 µM",90.9%
same,"viability, T/C","second compound 0.1 µM, first compound 3.16 µM",91.7%
same,"viability, T/C","second compound 0.1 µM, first compound 10 µM",4.63%
same,"viability, T/C","second compound 0.316 µM, first compound 0.0316 µM",40.1%
same,"viability, T/C","second compound 0.316 µM, first compound 0.1 µM",30.8%
same,"viability, T/C","second compound 0.316 µM, first compound 0.316 µM",37.5%
same,"viability, T/C","second compound 0.316 µM, first compound 1 µM",30.2%
same,"viability, T/C","second compound 0.316 µM, first compound 3.16 µM",7.28%
same,"viability, T/C","second compound 0.316 µM, first compound 10 µM",4.48%
same,"viability, T/C","second compound 1 µM, first compound 0.0316 µM",12.7%
same,"viability, T/C","second compound 1 µM, first compound 0.1 µM",7.04%
same,"viability, T/C","second compound 1 µM, first compound 0.316 µM",7.87%
same,"viability, T/C","second compound 1 µM, first compound 1 µM",6.5%
same,"viability, T/C","second compound 1 µM, first compound 3.16 µM",7%
same,"viability, T/C","second compound 1 µM, first compound 10 µM",7.23%
same,"viability, T/C","second compound 3.16 µM, first compound 0.0316 µM",7.85%
same,"viability, T/C","second compound 3.16 µM, first compound 0.1 µM",3.97%
same,"viability, T/C","second compound 3.16 µM, first compound 0.316 µM",7.25%
same,"viability, T/C","second compound 3.16 µM, first compound 1 µM",5.7%
same,"viability, T/C","second compound 3.16 µM, first compound 3.16 µM",8.72%
same,"viability, T/C","second compound 3.16 µM, first compound 10 µM",6.19%
same,"viability, T/C","second compound 10 µM, first compound 0.0316 µM",4.78%
same,"viability, T/C","second compound 10 µM, first compound 0.1 µM",5.48%
same,"viability, T/C","second compound 10 µM, first compound 0.316 µM",5.47%
same,"viability, T/C","second compound 10 µM, first compound 1 µM",5.41%
same,"viability, T/C","second compound 10 µM, first compound 3.16 µM",10%
same,"viability, T/C","second compound 10 µM, first compound 10 µM",1.39%
